These results are taken from US9598441B2, “Therapeutic compounds and methods” (Wayne State University, priority 2011, dated 2017).

Molecules are shown by their SMILES.

This assay has as its system drug (ADR or TAM)-resistant MCF-7 HBC cells. Put plainly: MTT cell viability assay, drug-resistant cells. Type of assay: cell-based, human. An excerpt:
Routine maintenance and culture of MDA-MB-231, MDA-MB-468, SKBR-3 (all lack ER and have mutant p53), MCF-7, T47D (both have ER and wild-type p53) HBC cells (Runnebaum, I. B., Nagarajan, M., Bowman, M., Soto, D., and Sukumar, S. (1991). Proc. Natl. Acad. Sci. USA 88, 10657-10661), human prostate cancer PC3 and LnCAP cells, HCT-116 human colon cancer, human pancreatic cancer PANC-1 and BxPC-3, Burkett lymphoma Raji, diffuse large B-cell lymphoma WSU-DLCL2, follicular lymphoma WSU-FSCCL cells, cervical cancer HeLa, human mesothelial Met5a, human pleural malignant mesothelioma (MPM), murine MPM AB12 cells (Wang, Y., Rishi, A. K., Puliyappadamba, V. T., Sharma, S., Yang, H., Tarca, A., Dou, Q. P., Lonardo, F., Ruckdeschel, J. C., Pass, H. I., Wali, A. (2010) Can. Chemother. […]
Logarithmically growing cells were either untreated or treated with different agents for various time periods. […] The cell growth inhibition was assessed by using MTT assay. […]
In general terms: Formazan colour is commonly taken as a measure of viable cells.

`O=C1N(Cc2ccccc2Cl)c2ccccc2C12NN=C(c1ccccc1)S2` (stereo not shown) [CFM-4, 1-(2-chlorobenzyl)-5′-phenyl-3′H-spiro[indoline-3,2′-[1,3,4]thiadiazol]-2-one]: the “proliferation of drug-resistant MCF-7 cells (MTT)” value is given as “inhibited proliferation”.
